The values that follow come from publication PMC7756445, “A Novel Prodrug of a nNOS Inhibitor with Improved Pharmacokinetic Potential” (Chemmedchem, 2020).

The structures appear in SMILES notation. Where two headings read alike, the source gives them in different places.

The subject of data set [1] is pepsin, pancreatin. Nature of the data set: Enzymatic stability in simulated fluids with pepsin or pancreatin. Format: in vitro ADME. Particulars: 37 °C, 2 h. The protocol:
(§1) The effects of gastrointestinal digestion are important parameters to be taken into consideration in the determination of bioavailability and bioactivity of new compounds. In particular, the luminal instability, due to the pH or enzymatic degradation, may compromise the transmucosal transport of the prodrug designed for permeability enhancement. Therefore, in this study the chemical stability of compound 2 was assessed to exclude any undesirable degradation at acid and physiological environments. Hydrochloric acid buffer (pH 2.0) as a nonenzymatic simulated gastric fluid (SGF), and phosphate buffer (pH 7.4) as nonenzymatic simulated intestinal fluid (SIF) were employed to evaluate the chemical stability. […] For chemical stability, a 0.01 M hydrochloric acid buffer (pH 1.3) and 0.01 M phosphate buffer (pH 7.4) were used. To assess enzymatic stability, the same hydrochloric buffer with and without pepsin (10 or 40 mg/mL) and phosphate buffer with and without pancreatin (10 or 40 mg/mL) were used. […] The mixture was vortexed and centrifuged at 2 °C and 10 000 rpm, Swing‐out Rotor, for 10 min, and the content of tested compound in the supernatant was analyzed by HPLC. Experiments were run in triplicate and the mean values of the rate constants were calculated.

Data set [2] can be described thus: Chemical stability in nonenzymatic simulated gastric and intestinal fluids. In kind it is physicochemical. As to conditions: 2 h. The method, then: as §1
The target in data set [3] is T1, B5 and B5R (Homo sapiens, UniProt O43169+P00387).
T1 sequence (O43169 16-150): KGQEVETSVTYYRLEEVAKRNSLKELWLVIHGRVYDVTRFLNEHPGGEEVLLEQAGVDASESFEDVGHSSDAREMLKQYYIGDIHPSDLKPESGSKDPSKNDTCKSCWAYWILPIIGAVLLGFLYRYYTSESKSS
T1 sequence (P00387 24-301 limits assumed): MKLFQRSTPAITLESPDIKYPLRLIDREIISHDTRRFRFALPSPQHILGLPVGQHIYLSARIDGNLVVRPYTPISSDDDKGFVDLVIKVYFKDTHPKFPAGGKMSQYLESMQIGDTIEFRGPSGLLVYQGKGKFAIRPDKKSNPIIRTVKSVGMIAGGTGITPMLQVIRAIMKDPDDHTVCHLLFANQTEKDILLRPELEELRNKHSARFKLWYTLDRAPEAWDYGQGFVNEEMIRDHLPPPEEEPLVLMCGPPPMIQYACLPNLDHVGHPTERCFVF
Description: Bioconversion control experiment without mARC. Format: in vitro ADME. As to conditions: B5 and B5R only, no mARC; NADH assay.

A short description of data set [4]: Log D and log P by shake-flask method. In kind it is physicochemical. Particulars: n-octanol/aqueous buffer. An excerpt:
The herein presented amidoxime 2 was designed as prodrug of the amidine 1 to improve membrane permeability and oral bioavailability. In this context, the deepening of the physicochemical properties is essential to obtain a favorable pharmacological profile. Therefore, we investigated the lipophilicity, the passive permeation through the human GI tract through the PAMPA assays, and the chemical and enzymatic stabilities in simulated GI fluids and plasma. […] In this study, the lipophilicity of our compounds was determined by means of the “shake‐flask method” and compared to the corresponding values calculated by the software. ^[43] However, for ionizable compounds, the distribution coefficient (log D) should be used instead of log P in the pH range where ionic species exist. ^[44] In this study, log P and log D were calculated (Table 1).
The column was a Waters Symmetry RP‐C18 column (4.6×150 mm, 5 μm). The mobile phase was a mixture of TFA 0.01 M/ACN/(MeOH/THF 90 : 10) 20/52/28 and the flow rate was 0.7 mL/min. The UV detector was set at a length of 254 nm.
Both n‐octanol and aqueous buffer (pH 1.4, 6.5 and 9.4) solutions were saturated of each other. 2 mg of tested compound was dissolved in 500 μL of organic phase and mixed with an equal volume of aqueous buffer by repeated inversions of up to 200 times for 5 min and then allowed to stand for 30 min for the phases to fully separate. Thereafter, the respective phases were analyzed by HPLC.

Data set [5] can be described thus: PAMPA-BBB assay. The arrangement: Papp at 18 h: dose or concentration left out as unconfirmed. As to conditions: porcine polar brain lipid, 18 h. The protocol: The relative passive transcellular diffusion of compounds, expressed as permeability coefficient (Pe), was determined with a permeability equation. ^[45] The permeabilities of 1, 2, and 1400 W were determined at pH 5.0, 6.5, and 7.4 to mimic the physiological conditions of the GI tract (Table 1). […] As the new prodrug was designed for the potential treatment of neurodegenerative diseases, an important parameter is its capability to cross the BBB.
PAMPA‐BBB assays were performed following the same procedure described above for PAMPA‐GI. Briefly, an artificial membrane consisting in a porcine polar brain lipid extract mixture (purchased from Avantis Polar Lipids, Alabaster, AL, USA) and an incubation time of 18 h were adopted as experimental conditions.
A general note: In PAMPA a lipid-coated filter parts donor from acceptor wells.

`C/C(=N\O)NC(c1ccccc1)c1ccccc1` [Compound 2, (1E)‐N‐(diphenylmethyl)‐N′‐hydroxyethanimidamide]: the melting point lay in the range of 112 to 115 °C. Besides, in data set [1] (pH 1.3, pepsin 10 or 40 mg/mL), the “enzymatic stability in SGF with pepsin” value is “stable”. Besides, in data set [1] (pH 7.4, pancreatin 10 or 40 mg/mL), the “enzymatic stability in SIF with pancreatin” value is given as “stable”. In addition, in data set [2] (hydrochloric acid buffer pH 2.0 (method: pH 1.3), 37 °C), the “chemical stability in nonenzymatic simulated gastric fluid (SGF)” value is on record as “stable”. For the same molecule, the “chemical stability in nonenzymatic simulated intestinal fluid (SIF)” value in data set [2] (phosphate buffer pH 7.4, 37 °C) is listed as “stable”. In data set [3], the “conversion to the amidine 1 in control experiment” value is “no conversion”. Moreover, the logD in data set [4] (pH 1.4, n-octanol/aqueous buffer pH 1.4, mean ± SD of three, read-out: log D 1.4) was -0.16. Also, in data set [4] (pH 1.4, pH 1.4 to 9.4, range stated in text, read-out: log D values over the pH values tested), the logD is -0.16 to 0.39. Moreover, in data set [4] (pH 6.5, n-octanol/aqueous buffer pH 6.5, mean ± SD of three, read-out: log D 6.5), the logD is 0.29. For the same molecule, the logD in data set [4] (pH 9.4, n-octanol/aqueous buffer pH 9.4, mean ± SD of three, read-out: log D 9.4) turned out to be 0.39. The molecule also gave a logP in data set [4] (shake-flask, as free amine, mean ± SD of three) of 3.24. This molecule also gave a Papp at 18 h in data set [5] (pig, PAMPA, PAMPA-BBB permeability Pe) above 4 ×10⁻⁶ cm/s. Further, the PAMPA-BBB permeation class result in data set [5] is given as “CNS+ (CNS+ (indicative of high BBB permeation): Pe >4.0)”.

Broadly, the melting point is the temperature, or range, at which the solid turns liquid. Usually logP stands for a log measure of how a compound divides between an organic and an aqueous phase. Usually Papp stands for the rate of passage across a membrane or cell layer, normalised by area and donor concentration.
